Measurements from patent US20240360150A1, “ISOINDOLINONE COMPOUNDS AND USES THEREOF” (HANGZHOU GLUBIO PHARMACEUTICAL CO. LTD., priority 2021, published 2024).
Read-outs that look alike come from different tables or passages of the source. One block for each compound: values may come before it.

Experiments:
HiBiT-tagged IKZF1 [1] = target: T1, HiBiT-tagged IKZF1 (Homo sapiens, UniProt Q13422+Q96SW2); assay: Degradation assay for IKZF1 (HiBiT tag bioluminescence assay); type: cell-based; conditions: HT-1080 IKZF1 HiBiT reporter cells; for DC50: read-out: HiBiT IKZF1: DC50
T1 construct: expressed in transfected cells; host or cells: HT-1080 (ATCC CCL-121), lentiviral transduction
Description: (§1) About 10,000 cells in complete DMEM cell culture media were seeded per well. Assay plates were incubated at 37° C. with 5% CO2 for hours, followed by the assessment of IKZF1 or SALL4 degradation using the Nano-Glo HiBiT Lytic Detection Reagent (Cat #N3050, Promega) according to the manufacturer's instruction. Luminescence was then measured with an EnVision plate reader (PerkinElmer) or a PHERAstar plate reader (BMG Labtech). All IKZF1 or SALL4 degradation curves were processed using Collaborative Drug Discovery Vault softwares. IKZF1 or SALL4 levels in compound-treated wells were normalized to that of DMSO control and expressed as Percent of Control (PoC, y). A four Parameter Logistic Model was used to determine the compound's EC50 and DC50, using the following equation:
(§2) A=Ymin (lowest IKZF1 or SALL4 level normalized to DMSO control in response to compound treatment, as determined by curve fit)
(§3) B=Ymax (IKZF1 or SALL4 level in DMSO control)
(§4) C=EC50 half degradation concentration
(§5) EC50=the concentration of compound when y=(Ymax−Ymin)/2
(§6) DC50=test sample concentration when IKZF1 or SALL4 readings y=50% DMSO-treated samples
(§7) y=IKZF1 or SALL4 readings after test sample treatment (normalized to IKZF1 or SALL4 readings in DMSO-treated samples)
(§8) Dmax represents the maximum percentage of IKZF1 or SALL4 protein degradation induced by compound treatment.

HiBiT-tagged SALL4 = target: T2, HiBiT-tagged SALL4 (Homo sapiens, UniProt Q96SW2+Q9UJQ4); assay: Degradation assay for SALL4 (HiBiT tag bioluminescence assay); type: cell-based; conditions: HT-1080 SALL4 HiBiT reporter cells; for DC50: read-out: HiBiT SALL4: DC50
T2 construct: expressed in transfected cells; host or cells: HT-1080 (ATCC CCL-121), lentiviral transduction
Description: as §1, §2, §3, §4, §5, §6, §7, §8

HiBiT-tagged IKZF1 [2] = target: T1, HiBiT-tagged IKZF1; assay: IKZF1 protein degradation kinetics (IKZF1 HiBiT degradation assay, incubation 1, 2 or 4 hours); type: cell-based
Source text: The following is a general method for testing compounds-induced degradation of HiBiT-tagged IKZF1 or SALL4 overexpressed in a human cell line, for example, the HT-1080 cell line (American Type Culture Collection (ATCC), catalog number CCL-121). The HT-1080 IKZF1 (or SALL4) HiBiT reporter cell line was engineered via lentiviral transduction to stably overexpress GSPT1 (Δ1-138)/G575N and HiBiT-tagged IKZF1 or SALL4. The HT-1080 IKZF1 (or SALL4) HiBiT reporter cell line was maintained in DMEM media supplemented with 10% fetal bovine serum, IX sodium pyruvate, 1× non-essential amino acids, IX glutamine, 100 U/ml penicillin, and 100 μg/mL streptomycin. The HT-1080 IKZF1 (or SALL4) HiBiT reporter cells were seeded into 384-well plates (Cat #3764, Corning) pre-spotted with DMSO or test compounds. Increasing concentrations of test compounds (ranging from 15.81 pM to 500 nM or from 0.3162 nM to 10 μM at a 3.162-fold increment) or DMSO were dispensed into an empty 384-well plate using an Echo 650 Acoustic Liquid Handler (Beckman Coulter). About 10,000 cells in complete DMEM cell culture media were seeded per well. Assay plates were incubated at 37° C. with 5% CO2 for hours, followed by the assessment of IKZF1 or SALL4 degradation using the Nano-Glo HiBiT Lytic Detection Reagent (Cat #N3050, Promega) according to the manufacturer's instruction. Luminescence was then measured with an EnVision plate reader (PerkinElmer) or a PHERAstar plate reader (BMG Labtech). All IKZF1 or SALL4 degradation curves were processed using Collaborative Drug Discovery Vault softwares. IKZF1 or SALL4 levels in compound-treated wells were normalized to that of DMSO control and expressed as Percent of Control (PoC, y). A four Parameter Logistic Model was used to determine the compound's EC50 and DC50, using the following equation: […]
The IKZF1 protein degradation kinetics of compounds 9-B and 9-A was evaluated using the IKZF1 HiBiT degradation assay as described above except that the incubation time was changed to 1, 2 or 4 hours.

MM.1S cells = assay: MM.1S cell proliferation assay (CellTiter-Glo); type: cell-based; conditions: for IC50: Homo sapiens, MM1.S, read-out: MM.1S: IC50; for Ymin: lowest cell viability read normalized to DMSO control, MM.1S, 120 hours
Description: About 3,000 cells in 50 μL of culture medium were seeded per well. Assay plates were incubated at 37° C. with 5% CO2 for 120 hours. After that, 20 μL of the CellTiter-Glo Luminescent Cell Viability Assay Reagent (Cat #G7573, Promega) was added to each well and incubated at room temperature for 30 minutes. Luminescence was then measured with an EnVision plate reader (PerkinElmer) or a PHERAstar plate reader (BMG LABTECH). All percentage of cell growth inhibition curves were processed using Collaborative Drug Discovery Vault softwares. Cell viability reads in compound-treated wells were normalized to that of DMSO control and expressed as Percent of Control (PoC, y). A four Parameter Logistic Model was used to determine the compound's EC50 and DC50, using the following equation:
[formula] • wherein, • A=Ymin (lowest cell viability read normalized to DMSO control in response to compound treatment, as determined by curve fit) • B=Ymax (the maximum value, cell viability read in DMSO control) • C=EC50 half inhibitory concentration • D=Hill Slope • x=compound concentration
as §5
y=cell viability read normalized to DMSO control

[3] = Pharmacokinetic study in mice; type: in vivo; conditions: male CD1 mice
Description: Objective: The objective of this study was to determine the pharmacokinetics of test compound following a single intravenous (IV) bolus dose and a single oral (PO) administration in male CD1 mice by quantifying the concentrations of the test compound at different times in plasma using LC/MS/MS method.
Materials: Male CD1 mouse (20-30 g, 6-8 weeks, Zhejiang Vital River Laboratory Animal Technology Co., Ltd.).
The clear solution of the test article was injected into CD1 mice via tail vein (free access to food and water), or orally administrated into CD1 mice (free access to food and water). After administration, blood was collected from the dorsal metatarsal vein at 5 min (0.0833 h, IV only), 15 min (0.25 h), 30 min (0.5 h), 60 min (1 h), 2 h, 4 h, 6 h, 8 h and 24 h. Blood samples were placed in an anticoagulant tube with EDTA-K2 at 4° C., mixed adequately and centrifuged at 4000 g for 5 min to get the plasma. The plasma concentration was quantified by LC-MS/MS. The PK parameters were calculated using non-compartmental model by Phoenix WinNonlin 6.1 (Linear/log trapezoidal).

[4] = HT-1080, Table 1, maximum percentage of protein degradation
[5] = HT-1080, Table 2, all compounds tested on the same day
[6] = Table 1, performed once with technical duplicates, some compounds tested on different days
[7] = Table 2, all compounds tested on the same day
[8] = after 1 hour of compound incubation
[9] = antiproliferative, 120 hours incubation, CellTiter-Glo
[10] = mouse, Table 5, PO (10 mg/kg), plasma
[11] = mouse, Table 4, PO (10 mg/kg), plasma
[12] = Table 1, maximum percentage of protein degradation

T1 sequence (Q13422 whole entry): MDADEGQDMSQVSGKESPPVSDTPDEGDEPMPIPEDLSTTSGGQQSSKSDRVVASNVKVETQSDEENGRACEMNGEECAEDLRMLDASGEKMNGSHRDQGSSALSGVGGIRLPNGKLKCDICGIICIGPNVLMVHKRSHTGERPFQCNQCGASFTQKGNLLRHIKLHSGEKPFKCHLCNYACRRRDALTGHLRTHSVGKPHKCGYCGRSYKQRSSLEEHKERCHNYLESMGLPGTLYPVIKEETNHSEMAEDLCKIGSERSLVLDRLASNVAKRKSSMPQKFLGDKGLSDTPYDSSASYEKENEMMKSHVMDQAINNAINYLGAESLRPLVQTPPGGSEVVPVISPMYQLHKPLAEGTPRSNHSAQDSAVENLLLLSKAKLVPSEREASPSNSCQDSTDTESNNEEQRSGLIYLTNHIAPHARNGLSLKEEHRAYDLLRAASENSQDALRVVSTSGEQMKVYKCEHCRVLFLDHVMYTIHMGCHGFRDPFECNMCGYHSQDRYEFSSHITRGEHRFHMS
T1 sequence (Q96SW2 whole entry): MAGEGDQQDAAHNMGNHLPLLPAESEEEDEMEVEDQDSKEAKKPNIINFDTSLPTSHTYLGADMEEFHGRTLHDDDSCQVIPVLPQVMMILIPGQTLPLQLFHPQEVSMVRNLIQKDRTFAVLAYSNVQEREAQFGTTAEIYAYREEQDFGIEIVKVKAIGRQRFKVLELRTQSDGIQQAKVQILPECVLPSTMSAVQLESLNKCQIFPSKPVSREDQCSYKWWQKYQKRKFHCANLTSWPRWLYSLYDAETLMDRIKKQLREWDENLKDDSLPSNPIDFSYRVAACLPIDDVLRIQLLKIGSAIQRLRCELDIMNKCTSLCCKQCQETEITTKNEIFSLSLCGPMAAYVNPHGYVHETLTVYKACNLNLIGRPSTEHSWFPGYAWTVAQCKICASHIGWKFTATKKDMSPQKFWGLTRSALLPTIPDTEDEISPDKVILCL
T1 sequence (Q16531 whole entry partner): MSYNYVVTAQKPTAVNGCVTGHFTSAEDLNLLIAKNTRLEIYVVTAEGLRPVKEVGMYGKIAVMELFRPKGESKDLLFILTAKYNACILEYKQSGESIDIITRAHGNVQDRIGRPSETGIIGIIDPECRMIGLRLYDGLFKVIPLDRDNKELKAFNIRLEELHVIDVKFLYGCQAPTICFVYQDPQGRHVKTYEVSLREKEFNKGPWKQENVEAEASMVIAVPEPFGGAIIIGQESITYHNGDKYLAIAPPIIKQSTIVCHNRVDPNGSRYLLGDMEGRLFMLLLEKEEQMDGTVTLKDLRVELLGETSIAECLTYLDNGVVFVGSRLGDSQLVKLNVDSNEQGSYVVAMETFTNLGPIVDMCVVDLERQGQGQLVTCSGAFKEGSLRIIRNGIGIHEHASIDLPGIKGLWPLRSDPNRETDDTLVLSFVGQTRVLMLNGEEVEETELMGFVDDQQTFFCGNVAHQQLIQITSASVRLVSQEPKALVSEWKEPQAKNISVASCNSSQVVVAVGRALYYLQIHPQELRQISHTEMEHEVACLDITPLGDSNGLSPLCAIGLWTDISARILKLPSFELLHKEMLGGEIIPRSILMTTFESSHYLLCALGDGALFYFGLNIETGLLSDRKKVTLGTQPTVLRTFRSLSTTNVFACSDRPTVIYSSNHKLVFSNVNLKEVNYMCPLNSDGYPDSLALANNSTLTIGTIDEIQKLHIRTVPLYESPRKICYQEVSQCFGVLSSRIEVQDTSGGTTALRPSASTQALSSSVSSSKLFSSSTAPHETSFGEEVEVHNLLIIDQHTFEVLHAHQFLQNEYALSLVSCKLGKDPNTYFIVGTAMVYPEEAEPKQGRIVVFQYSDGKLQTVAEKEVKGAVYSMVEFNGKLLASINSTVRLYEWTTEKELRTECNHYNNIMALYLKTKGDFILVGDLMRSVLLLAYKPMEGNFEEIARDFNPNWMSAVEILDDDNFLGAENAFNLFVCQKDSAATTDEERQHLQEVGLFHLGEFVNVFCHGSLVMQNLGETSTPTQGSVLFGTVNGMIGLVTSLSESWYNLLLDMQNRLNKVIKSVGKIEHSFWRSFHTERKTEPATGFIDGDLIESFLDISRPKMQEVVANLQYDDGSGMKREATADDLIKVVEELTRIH
T2 sequence (Q9UJQ4 whole entry): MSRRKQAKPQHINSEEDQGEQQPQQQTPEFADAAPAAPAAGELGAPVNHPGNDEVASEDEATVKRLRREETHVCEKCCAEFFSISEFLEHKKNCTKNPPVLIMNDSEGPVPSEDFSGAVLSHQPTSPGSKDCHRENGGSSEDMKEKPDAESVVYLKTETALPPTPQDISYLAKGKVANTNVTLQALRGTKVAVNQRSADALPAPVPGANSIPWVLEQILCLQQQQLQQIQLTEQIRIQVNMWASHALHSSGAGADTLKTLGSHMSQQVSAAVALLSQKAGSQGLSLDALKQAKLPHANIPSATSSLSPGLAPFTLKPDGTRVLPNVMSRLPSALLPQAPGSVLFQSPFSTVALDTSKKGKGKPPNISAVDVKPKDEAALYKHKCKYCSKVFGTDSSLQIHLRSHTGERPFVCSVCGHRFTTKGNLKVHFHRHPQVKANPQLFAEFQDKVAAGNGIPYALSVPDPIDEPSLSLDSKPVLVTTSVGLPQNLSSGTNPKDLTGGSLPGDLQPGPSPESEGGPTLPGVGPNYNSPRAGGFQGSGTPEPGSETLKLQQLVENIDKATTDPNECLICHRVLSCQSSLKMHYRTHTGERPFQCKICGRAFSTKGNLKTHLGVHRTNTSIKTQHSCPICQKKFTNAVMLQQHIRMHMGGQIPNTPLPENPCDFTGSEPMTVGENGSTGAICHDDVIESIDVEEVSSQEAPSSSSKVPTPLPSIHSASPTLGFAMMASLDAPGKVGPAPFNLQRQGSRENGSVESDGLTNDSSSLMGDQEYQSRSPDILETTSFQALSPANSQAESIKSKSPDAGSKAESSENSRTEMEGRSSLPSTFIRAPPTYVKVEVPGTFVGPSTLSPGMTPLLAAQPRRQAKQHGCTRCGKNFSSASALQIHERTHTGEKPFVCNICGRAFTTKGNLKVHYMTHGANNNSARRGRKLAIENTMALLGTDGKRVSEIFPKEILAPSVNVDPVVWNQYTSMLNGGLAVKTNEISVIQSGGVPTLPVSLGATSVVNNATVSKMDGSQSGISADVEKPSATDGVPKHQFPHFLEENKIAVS
T2 sequence (Q96SW2 whole entry): as the sequence (Q96SW2 whole entry) above
T2 sequence (Q16531 whole entry partner): as the sequence (Q16531 whole entry partner) above

Dmax (HiBiT-tagged IKZF1 [1]; [4]): 90.9% | Dmax (HiBiT-tagged IKZF1 [1]; [5]): 93.8% | DC50 (HiBiT-tagged IKZF1 [1]; [6]): 0.134 nM | DC50 (HiBiT-tagged IKZF1 [1]; [7]): 0.102 nM | Dmax (HiBiT-tagged SALL4; [4]): 59.5% | Dmax (HiBiT-tagged SALL4; [5]): 59.4% | DC50 (HiBiT-tagged SALL4; [6]): 104 nM | DC50 (HiBiT-tagged SALL4; [7]): 102 nM | DC50 (HiBiT-tagged IKZF1 [2]; [8]): ~0.4 nM | Dmax (HiBiT-tagged IKZF1 [2]; [8]): ~77% | DC50 (HiBiT-tagged IKZF1 [2]; after 4 hours of incubation): < 0.2 nM | Dmax (HiBiT-tagged IKZF1 [2]; after 4 hours of incubation): 92% | IC50 (MM.1S cells; [9]): 0.022 nM | AUC(0-t) [3, 10]: 73600 ng·h/mL | Cmax [3, 10]: 4390 ng/mL | half-life [3, 10]: 8.3 h
Structure (SMILES): N#Cc1ccc(N2CCN(Cc3ccc(Cc4ccc5c6c(cc(F)cc46)C(=O)N5[C@H]4CCC(=O)NC4=O)cc3)CC2)c(F)c1 (single isomer, unassigned) [Compound 9-B]
Ymin (MM.1S cells): 5.6 (n = 3) %

Dmax (HiBiT-tagged IKZF1 [1]; [4]): 91.6% | DC50 (HiBiT-tagged IKZF1 [1]; [6]): 0.074 nM | Dmax (HiBiT-tagged SALL4; [4]): 58.1% | DC50 (HiBiT-tagged SALL4; [6]): 32 nM | IC50 (MM.1S cells; [9]): 0.04 nM | F ([3]; Table 4, PO (10 mg/kg) vs IV (2 mg/kg)): 27.1% | AUC(0-t) ([3]; mouse, IV (2 mg/kg), plasma): 17200 ng·h/mL | clearance ([3]; mouse, IV (2 mg/kg), plasma): 1.57 mL/min/kg | half-life ([3]; mouse, IV (2 mg/kg), plasma): 10.2 h | Vd ([3]; mouse, IV (2 mg/kg), plasma, read-out: Vss): 1.32 L/kg | AUC(0-t) [3, 11]: 23300 ng·h/mL | Cmax [3, 11]: 1460 ng/mL
Structure (SMILES): N#Cc1ccc(N2CCN(Cc3ccc(Cc4ccc5c6c(cc(F)cc46)C(=O)N5C4CCC(=O)NC4=O)cc3)CC2)c(F)c1 (stereo not drawn) [Compound 9]
Ymin (MM.1S cells): 4.0 (n = 2) %

Dmax (HiBiT-tagged IKZF1 [1]; [12]): 79.5% | Dmax (HiBiT-tagged SALL4; [12]): 69.7% | IC50 (MM.1S cells; 120 h): > 30 nM
Structure (SMILES): Nc1cccc2c1C(=O)N(C1CCC(=O)NC1=O)C2=O (stereo not drawn) [Pomalidomide]
